Results published in article PMC4234265, “The C-terminus of nisin is important for the ABC transporter NisFEG to confer immunity in Lactococcus lactis” (MicrobiologyOpen, 2014).

Experiments:
NZ9000NisFEG strain = experiment: Growth inhibition (IC50) of nisin and variants, NisFEG-expressing strain; type: cell-based, Lactococcus lactis; conditions: for Fold of immunity mediated by NisFEG: IC50 against NZ9000NisFEG compared with IC50 against NZ9000Erm; for Activity of NisFEG reduced to: fold of immunity for the variant relative to wild-type nisin
Description: The NZ9000NisFEG and NZ9000NisFH181AEG strains were grown in GM17 media supplemented with 5 μg/mL chloramphenicol to an OD600 of 0.8. By the addition of nisin (final concentration of 1 ng/mL), the expression was induced and the culture was further grown overnight. After 15 h, the cells were diluted to an OD600 of 0.1 in fresh media supplemented with 5 μg/mL chloramphenicol and with the inducer nisin (10 ng/mL).
The NZ9000, NZ9000NisFEG, and NZ9000NisFH181AEG strains were grown overnight in GM17 media supplemented with 5 μg/mL chloramphenicol in the presence of 1 ng/mL nisin. The diluted cells (final OD600 was 0.1) were incubated with a serial dilution of nisin or its variants with 50 mmol/L lactic acid in a 96 well microtiter plate. The total volume in each well was 200 μL, consisting of 50 μL nisin and 150 μL GM17 containing the corresponding L. lactis strain.
The plate was incubated at 30°C. After 5 h, the optical density was measured at 620 nm via 96-plate reader BMG. The normalized optical density was plotted against the logarithm of the nisin concentration in order to calculate the IC50 of nisin and the data was evaluated using the following equation (1): [drawing 1] 1
The IC50 value is the concentration of nisin were the growth of the L. lactis strain is inhibited by 50% as described in more detail earlier (Abts et al. [2011]).

NZ9000Erm strain = experiment: Growth inhibition (IC50) of nisin and variants, sensitive strain; type: cell-based, Lactococcus lactis; conditions: from IC50 values against NZ9000Erm

Compound	Fold of immunity mediated by NisFEG (NZ9000NisFEG strain) [fold]	Activity of NisFEG reduced to (NZ9000NisFEG strain) [%]	Fold reduction of antimicrobial activity compared to wild-type nisin (NZ9000Erm strain) [fold]	Reduction of NisFEG activity / fold of immunity (NZ9000NisFEG strain; decrease relative to wild-type nisin) [%]
C=C1NC(=O)[C@H]([C@@H](C)CC)NC(=O)[C@H](NC(=O)/C(=C/C)NC(=O)[C@@H](N)[C@@H](C)CC)CSC[C@@H](C(=O)N[C@H]2C(=O)N3CCC[C@H]3C(=O)NCC(=O)N[C@H](C(=O)N[C@@H](CCCCN)C(=O)N[C@H]3C(=O)NCC(=O)N[C@@H](C)C(=O)N[C@@H](CC(C)C)C(=O)N[C@@H](CCSC)C(=O)NCC(=O)N[C@H](C(=O)N[C@@H](CC(N)=O)C(=O)N[C@@H](CCSC)C(=O)N[C@@H](CCCCN)C(=O)O)CS[C@H]3C)CS[C@H]2C)NC(=O)[C@H](CC(C)C)NC1=O [Nisin1-22]	2.5	33	25	
C=C1NC(=O)[C@H]([C@@H](C)CC)NC(=O)[C@H](NC(=O)/C(=C/C)NC(=O)[C@@H](N)[C@@H](C)CC)CSC[C@@H](C(=O)N[C@H]2C(=O)N3CCC[C@H]3C(=O)NCC(=O)N[C@H](C(=O)N[C@@H](CCCCN)C(=O)N[C@H]3C(=O)NCC(=O)N[C@@H](C)C(=O)N[C@@H](CC(C)C)C(=O)N[C@@H](CCSC)C(=O)NCC(=O)N[C@H](C(=O)N[C@@H](CC(N)=O)C(=O)N[C@@H](CCSC)C(=O)N[C@@H](CCCCN)C(=O)N[C@H]4C(=O)N[C@@H](C)C(=O)N[C@H]5C(=O)N[C@@H](CS[C@H]4C)C(=O)N[C@@H](Cc4c[nH]cn4)C(=O)N[C@H](C(=O)O)CS[C@H]5C)CS[C@H]3C)CS[C@H]2C)NC(=O)[C@H](CC(C)C)NC1=O [Nisin1-28]	3.8	60	20	50
